Reference: publication PMC10913730, “Antimicrobial activity of a natural compound and analogs against multi-drug-resistant Gram-positive pathogens” (Microbiology Spectrum, 2024)
Converted amounts (≈) assume the structure as drawn. Read-outs that look alike come from different tables or passages of the source.

Tests used:
[1] = pH and Ka of 10-g/L aqueous solutions (pH meter); type: physicochemical; conditions: 10-g/L solution in distilled, deionized water
[2] = tested on: MRSA isolates; assay: MIC/MBC, CLSI broth microdilution, MRSA isolates; type: cell-based, Staphylococcus aureus
[3] = tested on: Staphylococcus epidermidis isolates; assay: microbe, parasite or virus in culture; type: cell-based
[4] = tested on: Enterococcus faecalis; assay: MIC/MBC against Enterococcus faecalis; type: cell-based
[5] = tested on: Streptococcus pyogenes; assay: MIC/MBC against Streptococcus pyogenes; type: cell-based; conditions: for MBC: Streptococcus pyogenes
[6] = tested on: Pseudomonas aeruginosa; assay: MIC against Pseudomonas aeruginosa; type: cell-based
[7] = tested on: MRSA isolates SA LL 06 and TCH 1516; assay: Kill kinetics against stationary-phase MRSA; type: cell-based, Staphylococcus aureus; conditions: shaking, 37°C
Description: MRSA isolates, TCH 1516 and SA LL 06, were grown to the stationary phase, and the rate of bacterial killing was determined. Frozen bacterial stocks were streaked onto TSA plates and grown overnight. A single colony was selected and incubated overnight in LB broth at 37°C with constant orbital shaking at 200 RPM. Next, bacterial suspension was washed twice with 150 mM sodium chloride and resuspended in MH broth at a concentration of 1.2E9 CFU/mL. […] Glass tubes containing 5 mL of bacteria and drug solutions were grown in a shaking incubator at 37°C. At 0, 4, 8, and 24 hours, bacterial suspensions were collected, serially diluted, and plated onto a blood agar plate. Bacteria were allowed to grow for 24 hours and were enumerated to yield colony-forming units per milliliter.

[8] = tested on: MRSA isolate SAD05 biofilms; type: cell-based, Staphylococcus aureus; conditions: 72-hour biofilms of SAD05, MBEC assay
[9] = tested on: MRSA isolate TCH 1516; assay: Single-step resistance development; type: cell-based, Staphylococcus aureus; conditions: TCH 1516 stationary phase; C59 as low as 2× MIC, vancomycin up to 8× MIC
Description: For the single-step study, bacteria were grown to the stationary phase as described above. Bacteria at a concentration of 1E9 CFU were then plated onto C59 and vancomycin-loaded plates containing 1×, 2×, 4×, and 8× MIC concentrations of the therapeutic agents with 1% DMSO. Bacteria were incubated at 37°C for 48 hours, and colony counts were enumerated to calculate the frequency of resistance development, as described in the literature ([45], [46]).

[10] = tested on: MRSA isolate TCH 1516; assay: Resistance acquisition during serial passage; type: cell-based, Staphylococcus aureus; conditions: serial passage, after 21 days
Description: MRSA isolate TCH 1516 was grown to the stationary phase (OD650 = 1.0) in 10 mL of MH broth. […] The second highest drug concentration resulting in bacterial growth (OD650 >1.0) was used as the inoculum after a 1:1,000 dilution for subsequent steps, every 24 hours, for up to 21 days.

[11] = tested on: human dermal fibroblast (HDF) cells; assay: alamarBlue cell viability assay, HDF; conditions: HDFs, 24-hour incubation, non-linear regression
[12] = tested on: human bronchial epithelial (16HBE) cells; assay: alamarBlue cell viability assay, 16HBE; conditions: 24-hour incubation, non-linear regression
[13] = tested on: erythrocytes (sheep blood); assay: Hemolytic activity against sheep erythrocytes
[14] = Staphylococcus aureus, MRSA, pH 5.5, MRSA 0606, pH 5.5
[15] = Staphylococcus aureus, MRSA, pH 5.5, MRSA 0608, pH 5.5
[16] = Staphylococcus aureus, MRSA, pH 5.5, MRSA 0634, pH 5.5
[17] = Staphylococcus aureus, MRSA, pH 5.5, MRSA 0641, pH 5.5
[18] = Staphylococcus aureus, MRSA, pH 5.5, MRSA 0646, pH 5.5
[19] = Staphylococcus aureus, MRSA, pH 5.5, TCH 1516, pH 5.5
[20] = Staphylococcus aureus, MRSA, pH 6.5, MRSA 0606, pH 6.5
[21] = Staphylococcus aureus, MRSA, pH 6.5, MRSA 0608, pH 6.5
[22] = Staphylococcus aureus, MRSA, pH 6.5, MRSA 0634, pH 6.5
[23] = Staphylococcus aureus, MRSA, pH 6.5, MRSA 0641, pH 6.5
[24] = Staphylococcus aureus, MRSA, pH 6.5, MRSA 0646, pH 6.5
[25] = Staphylococcus aureus, MRSA, pH 6.5, TCH 1516, pH 6.5
[26] = Staphylococcus aureus, MRSA, pH 7.4, MRSA 0606, pH 7.4
[27] = Staphylococcus aureus, MRSA, pH 7.4, MRSA 0608, pH 7.4
[28] = Staphylococcus aureus, MRSA, pH 7.4, MRSA 0634, pH 7.4
[29] = Staphylococcus aureus, MRSA, pH 7.4, MRSA 0641, pH 7.4
[30] = Staphylococcus aureus, MRSA, pH 7.4, MRSA 0646, pH 7.4
[31] = Staphylococcus aureus, MRSA, pH 7.4, TCH 1516, pH 7.4
[32] = 21 Staphylococcus epidermidis isolates
[33] = ATCC49532, Enterococcus faecalis (ATCC 49532)
[34] = ATCC51575, Enterococcus faecalis (ATCC 51575)
[35] = Streptococcus pyogenes (NR1575)

In the case of `Oc1c(Cl)cc(Cl)cc1-c1cc(Cl)cc(Cl)c1O` [C59, 3,3′,5,5′-tetrachloro-[1,1′-biphenyl]−2,2′-diol], the “acid dissociation constant (Ka)” value [1] is reported as 6.18 × 10^−19, the pH of solution ([1]; room temperature) is reported as 9.86 and the MIC90 ([2]; Staphylococcus aureus, MRSA, 39 evaluated MRSA isolates, CLSI broth microdilution) is reported as 2 µg/mL (≈ 6.17 µM). For the same compound, the MIC ([2]; Staphylococcus aureus, MRSA, SA LL 06, as given for the kill kinetic assay) was 2 µg/mL (≈ 6.17 µM), the MIC ([2]; Staphylococcus aureus, MRSA, TCH 1516, as given for the kill kinetic assay) was 2 µg/mL (≈ 6.17 µM) and the MBC [2, 14] was 0.5 µg/mL (≈ 1.54 µM). The MIC [2, 14] was 0.5 µg/mL (≈ 1.54 µM), the MBC [2, 15] was 0.5 µg/mL (≈ 1.54 µM) and the MIC [2, 15] was 0.5 µg/mL (≈ 1.54 µM). For the same compound, the MBC [2, 16] was 0.5 µg/mL (≈ 1.54 µM), the MIC [2, 16] was 0.5 µg/mL (≈ 1.54 µM) and the MBC [2, 17] was 0.5 µg/mL (≈ 1.54 µM). The MIC [2, 17] was 0.5 µg/mL (≈ 1.54 µM), the MBC [2, 18] was 0.5 µg/mL (≈ 1.54 µM) and the MIC [2, 18] was 0.5 µg/mL (≈ 1.54 µM). It also gave an MBC [2, 19] of 0.5 µg/mL (≈ 1.54 µM), an MIC [2, 19] of 0.5 µg/mL (≈ 1.54 µM) and an MBC ([2]; Staphylococcus aureus, MRSA, pH 5.5, read-out: Average MBC, average of six MRSA isolates, pH 5.5) of 0.5 µg/mL (≈ 1.54 µM). It also gave an MIC ([2]; Staphylococcus aureus, MRSA, pH 5.5, read-out: Average MIC, average of six MRSA isolates, pH 5.5) of 0.5 µg/mL (≈ 1.54 µM), an MBC [2, 20] of 6 µg/mL (≈ 18.5 µM) and an MIC [2, 20] of 1 µg/mL (≈ 3.09 µM). It also gave an MBC [2, 21] of 2 µg/mL (≈ 6.17 µM), an MIC [2, 21] of 2 µg/mL (≈ 6.17 µM) and an MBC [2, 22] of 4 µg/mL (≈ 12.3 µM). It also gave an MIC [2, 22] of 1 µg/mL (≈ 3.09 µM), an MBC [2, 23] of 4 µg/mL (≈ 12.3 µM) and an MIC [2, 23] of 1 µg/mL (≈ 3.09 µM). For the same compound, the MBC [2, 24] was 4 µg/mL (≈ 12.3 µM), the MIC [2, 24] was 1 µg/mL (≈ 3.09 µM) and the MBC [2, 25] was 4 µg/mL (≈ 12.3 µM). For the same compound, the MIC [2, 25] was 1 µg/mL (≈ 3.09 µM), the MBC ([2]; Staphylococcus aureus, MRSA, pH 6.5, read-out: Average MBC, average of six MRSA isolates, pH 6.5) was 4 µg/mL (≈ 12.3 µM) and the MIC ([2]; Staphylococcus aureus, MRSA, pH 6.5, read-out: Average MIC, average of six MRSA isolates, pH 6.5) was 1.2 µg/mL (≈ 3.7 µM). For the same compound, the MBC [2, 26] was 4 µg/mL (≈ 12.3 µM), the MIC [2, 26] was 2 µg/mL (≈ 6.17 µM) and the MBC [2, 27] was 6 µg/mL (≈ 18.5 µM). The MIC [2, 27] was 2 µg/mL (≈ 6.17 µM), the MBC [2, 28] was 8 µg/mL (≈ 24.7 µM) and the MIC [2, 28] was 2 µg/mL (≈ 6.17 µM). The MBC [2, 29] was 8 µg/mL (≈ 24.7 µM), the MIC [2, 29] was 2 µg/mL (≈ 6.17 µM) and the MBC [2, 30] was 4 µg/mL (≈ 12.3 µM). For the same compound, the MIC [2, 30] was 2 µg/mL (≈ 6.17 µM), the MBC [2, 31] was 4 µg/mL (≈ 12.3 µM) and the MIC [2, 31] was 2 µg/mL (≈ 6.17 µM). It also gave an MBC ([2]; Staphylococcus aureus, MRSA, pH 7.4, read-out: Average MBC, average of six MRSA isolates, pH 7.4) of 5.7 µg/mL (≈ 17.6 µM), an MIC ([2]; Staphylococcus aureus, MRSA, pH 7.4, read-out: Average MIC, average of six MRSA isolates, pH 7.4) of 2 µg/mL (≈ 6.17 µM) and an MBC ([2]; Staphylococcus aureus, MRSA, read-out: MBC90, 39 evaluated MRSA isolates, CLSI broth microdilution) of 6 µg/mL (≈ 18.5 µM). For the same compound, the “change of MIC and MBC with the reduction in pH” value ([2]; six MRSA isolates, pH lowered to 5.5) was “decreased as much as fourfold”, the MBC range [3, 32] was 6 to 12 µg/mL and the MIC range [3, 32] was 2 to 4 µg/mL. For the same compound, the MIC90 ([3]; Staphylococcus epidermidis) was 4 µg/mL (≈ 12.3 µM), the MBC ([3]; Staphylococcus epidermidis, read-out: MBC90) was 12 µg/mL (≈ 37 µM) and the MBC [4, 33] was 16 µg/mL (≈ 49.4 µM). The MIC [4, 33] was 8 µg/mL (≈ 24.7 µM), the MBC [4, 34] was 16 µg/mL (≈ 49.4 µM) and the MIC [4, 34] was 8 µg/mL (≈ 24.7 µM). For the same compound, the MIC ([5]; Streptococcus pyogenes (NR1571), read-out: MIC) was 6 µg/mL (≈ 18.5 µM), the MIC [5, 35] was 6 µg/mL (≈ 18.5 µM) and the MBC ([5]; Streptococcus pyogenes (NR1571)) was 24 µg/mL (≈ 74.1 µM). For the same compound, the MBC [5, 35] was 16 µg/mL (≈ 49.4 µM), the MIC ([6]; Pseudomonas aeruginosa (PAM57-15)) was over 32 µg/mL and the MIC ([6]; Pseudomonas aeruginosa (PAO1)) was over 32 µg/mL. For the same compound, the “bacterial killing after 24 hours” value ([7]; stationary-phase SA LL 06, C59 at 1× and 2× MIC) was “complete bacterial eradication”, the “bacterial killing after 24 hours” value ([7]; stationary-phase TCH 1516) was “did not result in complete bacterial killing” and the “concentration that completely eradicated biofilms” value [8] was 16 µg/mL. The “growth on drug-loaded plates” value [9] was “No growth”, the “increase in MIC” value [10] was “no change in MIC” and the LD50 [11] was 56.0 µg/mL. For the same compound, the LD50 [12] was 40.2 µg/mL, the “concentrations at which erythrocytes were not lysed” value ([13]; 1% sheep blood, 1-hour incubation) was “up to 24 µg/mL” and the “LD50 relative to MIC90” value ([13]; higher than MIC90, stated in the hemolysis discussion, cell type not named) was 24 fold.
